In brackets after ≈: the same amount, converted by molar mass. Where two headings read alike, the source gives them in different places.
What was measured:
H. pylori urease (HPU) [1] = target: T1, H. pylori urease (HPU) (Helicobacter pylori, UniProt P69996); assay: biochemical; format: biochemical, H. pylori strain ATCC 43504
T1 construct: The resulting HPU preparation represents a crude enzyme extract; endogenous in cells; host or cells: H. pylori strain ATCC 43504 (crude enzyme extract, method of Matsubara et al. 2003)
T1 sequence (P14916 whole entry): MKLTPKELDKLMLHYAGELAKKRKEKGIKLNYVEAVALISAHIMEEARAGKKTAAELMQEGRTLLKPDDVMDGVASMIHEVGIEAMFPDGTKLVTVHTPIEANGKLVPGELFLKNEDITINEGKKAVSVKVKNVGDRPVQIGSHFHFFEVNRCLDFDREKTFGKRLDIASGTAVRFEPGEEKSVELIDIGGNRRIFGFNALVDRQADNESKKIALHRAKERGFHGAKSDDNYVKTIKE
T1 sequence (P69996 whole entry): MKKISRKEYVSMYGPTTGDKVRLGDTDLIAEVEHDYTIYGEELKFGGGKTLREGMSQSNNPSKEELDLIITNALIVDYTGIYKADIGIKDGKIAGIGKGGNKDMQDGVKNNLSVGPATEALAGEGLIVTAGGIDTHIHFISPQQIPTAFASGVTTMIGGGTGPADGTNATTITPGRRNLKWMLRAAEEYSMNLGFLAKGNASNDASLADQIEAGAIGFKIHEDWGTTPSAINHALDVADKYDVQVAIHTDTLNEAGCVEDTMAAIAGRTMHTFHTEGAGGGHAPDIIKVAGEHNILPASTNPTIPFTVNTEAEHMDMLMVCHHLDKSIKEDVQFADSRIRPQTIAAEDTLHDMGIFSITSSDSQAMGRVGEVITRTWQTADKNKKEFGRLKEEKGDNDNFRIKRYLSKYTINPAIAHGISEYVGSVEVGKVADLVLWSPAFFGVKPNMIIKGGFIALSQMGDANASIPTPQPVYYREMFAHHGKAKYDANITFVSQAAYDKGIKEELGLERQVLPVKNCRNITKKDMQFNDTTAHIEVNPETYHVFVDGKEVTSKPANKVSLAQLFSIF
Experimental: H. pylori was inoculated in Campylobacter agar and grown on Columbia agar with appropriate bovine serum albumin at 37°C, 98% humidity, and low aerobic conditions (5% O2, 10% CO2, and 85% N2) for 72 hours. Three days later, H. pylori was collected by scraping and then suspended in phosphate buffered saline (PBS). Besides, the H. pylori concentration was calibrated to 1×10^8 CFU/mL by turbidimetric method. Standard HPU was extracted from H. pylori strain ATCC 43504 following the approach detailed by [Matsubara et al. (2003)]. The resulting HPU preparation represents a crude enzyme extract, which has been widely adopted for initial inhibitor screening studies ([Li et al., 2018]; [Tan et al., 2017]; [Yu et al., 2015]). All inhibition assays included appropriate controls (enzyme blanks and solvent controls) to ensure specific detection of urease activity.
(§1) The protein concentration of HPU was tested utilizing BCA protein detection kit. Standard urease test mixture consists of 150 mM urea in HEPES buffer (20 mM). HPU solution of varying concentrations was mixed with 150 mM urea as the substrate in a HEPES buffer (20 mM), and then reacted at 37 °C for 20 min. Urease vitality was assessed based on ammonia levels generated during the reaction. Ultimately, residual urease activity was measured by modified Berthelot (phenol hypochlorite) at 595 nm. This experiment was performed three times in parallel.
(§2) Test drug solution with equal volume and different concentration was mixed with urease and incubated in a 96-well plate at 37°C for 20 min. AHA was used as the positive control, while urease with urea (no depressor) served as the negative control. Moreover, urea solution (150 mM) was admixed and coincubated at ambient temperature for 20 min. Residual urease activity was measured via using the modified Berthelot method. The percentage of residual activity (RA%) was calculated as (A^sample - A^blank)/(A^negative control - A^blank)×100%, where A^blank represents the background absorbance without urease. Calculating the half-maximal inhibitory concentration (IC50) of the depressor to assess the impact of the test drug towards enzyme activity. Each experiment was conducted in triplicate for validation.

jack bean urease (JBU) [2] = target: T2, jack bean urease (JBU) (Canavalia ensiformis, UniProt P07374); assay: biochemical; format: biochemical
T2 construct: purchased Sigma Aldrich
T2 sequence (P07374 whole entry, looked up): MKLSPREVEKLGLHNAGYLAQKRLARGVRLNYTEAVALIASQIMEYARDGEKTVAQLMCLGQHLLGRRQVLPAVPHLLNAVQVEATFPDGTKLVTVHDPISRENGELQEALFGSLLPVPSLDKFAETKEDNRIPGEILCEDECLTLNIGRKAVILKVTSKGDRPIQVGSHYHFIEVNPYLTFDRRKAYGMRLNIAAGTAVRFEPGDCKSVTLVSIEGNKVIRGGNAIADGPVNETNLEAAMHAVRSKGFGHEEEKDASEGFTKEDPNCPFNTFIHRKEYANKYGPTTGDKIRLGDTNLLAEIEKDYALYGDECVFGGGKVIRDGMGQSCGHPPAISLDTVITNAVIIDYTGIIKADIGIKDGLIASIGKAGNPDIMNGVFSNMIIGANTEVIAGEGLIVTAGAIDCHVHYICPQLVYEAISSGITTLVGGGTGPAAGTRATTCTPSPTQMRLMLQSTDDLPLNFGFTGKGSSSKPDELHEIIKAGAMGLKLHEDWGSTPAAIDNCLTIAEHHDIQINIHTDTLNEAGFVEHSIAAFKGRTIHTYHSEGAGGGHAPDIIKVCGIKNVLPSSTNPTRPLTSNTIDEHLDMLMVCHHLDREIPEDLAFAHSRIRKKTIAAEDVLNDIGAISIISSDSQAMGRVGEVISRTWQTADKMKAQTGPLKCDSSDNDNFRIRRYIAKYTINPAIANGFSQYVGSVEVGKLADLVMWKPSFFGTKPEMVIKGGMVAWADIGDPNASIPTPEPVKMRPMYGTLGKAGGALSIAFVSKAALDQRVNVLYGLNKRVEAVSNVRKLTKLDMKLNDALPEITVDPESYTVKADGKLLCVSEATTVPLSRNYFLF
Excerpt: Campylobacter agar medium was purchased from Thermo Fisher Scientific. Acetylhydroxamic acid (AHA), jack bean urease (JBU, type III with specific activity 40.3 U/mg solid) and urea were obtained from Sigma Aldrich. Boric acid (BA) and sodium fluoride (NaF) were purchased from Maclin (Shanghai, China). Dithiothreitol (DTT) and L-cysteine (L-cys) were obtained from Solaibao (Beijing, China). Glutathione (GSH) was obtained from Meilun (Dalian, China). HEPES (Amresco >99%) was from BioFroxx. All chemicals and reagents were of analytic purity.
as §1, §2

[3] = test system: H. pylori strains (ATCC 43504, NCTC 26695, ICDC 111001); assay: Minimal inhibitory concentration assay (agar dilution method); format: cell-based; settings: Helicobacter pylori, H. pylori strain ICDC 111001
H. pylori urease (HPU) [4] = target: T1, H. pylori urease (HPU); assay: biochemical; format: biochemical, H. pylori strain ATCC 43504; remark: listed apart in the source
Experimental: Residual urease activity was determined by pre-incubating test drug, urease mixture with a series of urea concentrations. Michaelis constant (KM ) and maximum velocity (vmax ) values are obtained from the Lineweaver-Burk plots of 1/v and 1/urea by plotting the reciprocal reaction velocity and substrate concentration. Variation characteristics of urease kinetic parameters KM and vmax were analyzed by adding different concentrations of test products to determine the type of inhibiting effect on HPU. Each sample was performed in triplicate.

jack bean urease (JBU) [5] = target: T2, jack bean urease (JBU); assay: biochemical; format: biochemical; remark: listed apart in the source

In the case of `CC(=O)NO` [AHA, Acetylhydroxamic acid, reference compound], the IC50 (H. pylori urease (HPU) [1]; HPU, positive control) is reported as 4.93 ± 0.11 µg/mL and the IC50 (jack bean urease (JBU) [2]; JBU, positive control) is reported as 1.56 ± 0.10 µg/mL.
Molecule `Cc1ncc([N+](=O)[O-])n1CCO` [Metronidazole] has an MIC [3] of 2 µg/mL (≈ 11.7 µM) and an MIC ([3]; pH 7.2) of 2 µg/mL (≈ 11.7 µM).
With `C[C@@H]1O[C@@H](O[C@H]2C(=O)c3c(O)cc(O)cc3O[C@@H]2c2ccc(O)c(O)c2)[C@H](O)[C@H](O)[C@H]1O` [astilbin] the IC50 (H. pylori urease (HPU) [1]) was 1470 ± 10 µM, the “Strength of urease inhibition relative to engeletin” value (H. pylori urease (HPU) [1]; urease, HPU/JBU not given) was “more than three times as strongly” and the IC50 (jack bean urease (JBU) [2]) was 2220 ± 20 µM. The Ki (H. pylori urease (HPU) [4]) was 870 ± 10 µM, the Kis (H. pylori urease (HPU) [4]; HPU) was 0.87 ± 0.01 mM and the Inhibition type (H. pylori urease (HPU) [4]; HPU, Lineweaver-Burk analysis) was “non-competitive”. For the same molecule, the Ki (jack bean urease (JBU) [5]) was 200 ± 10 µM, the Kis (jack bean urease (JBU) [5]; JBU) was 1.17 ± 0.10 mM and the Inhibition type (jack bean urease (JBU) [5]; JBU, Lineweaver-Burk analysis) was “mixed”.
`C[C@@H]1O[C@@H](O[C@H]2C(=O)c3c(O)cc(O)cc3O[C@@H]2c2ccc(O)cc2)[C@H](O)[C@H](O)[C@H]1O` [engeletin] showed an IC50 (H. pylori urease (HPU) [1]) of 5890 ± 10 µM and an IC50 (jack bean urease (JBU) [2]) of 6670 ± 10 µM.
